This is an account of results in patent publication US9809574B2, “Isoindoline or isoquinoline compounds, a process for their preparation and pharmaceutical compositions containing them” (LES LABORATOIRES SERVIER, priority 2013, dated 2017).

Counter-ions that a name gives are not always drawn.

In assay [1] the target is Bcl-2 protein (histag-Bcl-2, UniProtKB P10415) (Homo sapiens (Human), UniProt P10415). The assay can be described thus: Inhibition of Bcl-2 by the fluorescence polarisation technique. Type of assay: binding. As to conditions: fluorescence polarisation test; incubation for 2 hours; read-out: IC50 (nM) Bcl-2 FP. An excerpt:
For partial inhibitors, the percentage fluorescence polarisation inhibition for a given concentration of the test compound is indicated.

Assay [2] relates to RS4; 11 leukaemia cell line. The assay can be described thus: In vitro cytotoxicity, Microculture Tetrazolium Assay (MTT). Type of assay: cell-based. As to conditions: Homo sapiens, 11 cells exposed for 48 hours. As to the method: The cytotoxicity studies were carried out on the RS4; 11 leukaemia cell line and on H146 small Cell Lung Carcinoma cell line. The cells are distributed onto microplates and exposed to the test compounds for 48 hours. The cell viability is then quantified by a colorimetric assay, the Microculture Tetrazolium Assay (Cancer Res., 1987, 47, 939-942).

Sequence of Bcl-2 protein (P10415 whole entry): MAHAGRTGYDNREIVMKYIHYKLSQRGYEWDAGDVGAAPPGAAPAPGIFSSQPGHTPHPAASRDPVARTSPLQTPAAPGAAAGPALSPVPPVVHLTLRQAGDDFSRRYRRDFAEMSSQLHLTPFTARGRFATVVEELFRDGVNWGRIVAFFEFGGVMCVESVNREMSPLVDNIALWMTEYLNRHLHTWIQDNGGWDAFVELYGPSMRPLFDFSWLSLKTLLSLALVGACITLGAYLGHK

Take `Cc1c(C(=O)N(C)c2ccc(O)cc2)cc(-c2cc3c(cc2C(=O)N2Cc4ccccc4C[C@H]2C)CN(C(=O)Oc2ccc(Cl)cc2)C3)n1C` [Example 105, 4-Chlorophenyl 5-{4-[(4-hydroxyphenyl)(methyl)carbamoyl]-1,5-dimethyl-1H-pyrrol-2-yl}-6-[(3R)-3-methyl-1,2,3,4-tetrahydroisoquinoline-2-carbonyl]-2,3-dihydro-1H-isoindole-2-carboxylate]: the IC50 in assay [1] was 7.3 nM; in assay [2], 31 nM.

As for `Cc1c(C(=O)N(C)c2ccc(O)cc2)cc(-c2cc3c(cc2C(=O)N2Cc4ccccc4C[C@H]2C)CN(C(=O)Oc2ccc(F)cc2)C3)n1C` [Example 106, 4-Fluorophenyl 5-{4-[(4-hydroxyphenyl)(methyl)carbamoyl]-1,5-dimethyl-1H-pyrrol-2-yl}-6-[(3R)-3-methyl-1,2,3,4-tetrahydroisoquinoline-2-carbonyl]-2,3-dihydro-1H-isoindole-2-carboxylate], the IC50 in assay [1] came to 5.3 nM; in assay [2], 38 nM.

`Cc1ccc(OC(=O)N2Cc3cc(C(=O)N4Cc5ccccc5C[C@H]4C)c(-c4cc(C(=O)N(C)c5ccc(O)cc5)c(C)n4C)cc3C2)cc1` [Example 107, 4-Methylphenyl 5-{4-[(4-hydroxyphenyl)(methyl)carbamoyl]-1,5-dimethyl-1H-pyrrol-2-yl}-6-[(3R)-3-methyl-1,2,3,4-tetrahydroisoquinoline-2-carbonyl]-2,3-dihydro-1H-isoindole-2-carboxylate]: the figures for the IC50 in assay [1] and in assay [2] were 3.5 nM and 6.9 nM, respectively.

For the compound `C[C@@H]1Cc2ccccc2CN1C(=O)c1cc2c(cc1-c1cc(C(=O)N(C)c3ccc(O)cc3)c3n1CCCC3)CCN(C(=O)Cc1ccc(NCCN(C)C)cc1)C2` [Example 108, 3-{2-[2-(4-{[2-(Dimethylamino)ethyl]amino}phenyl)acetyl]-7-[(3R)-3-methyl-1,2,3,4-tetrahydroisoquinoline-2-carbonyl]-1,2,3,4-tetrahydroisoquinolin-6-yl}-N-(4-hydroxyphenyl)-N-methyl-5,6,7,8-tetrahydroindolizine-1-carboxamide hydrochloride], the IC50 came to 2.7 nM in assay [1] and 15 nM in assay [2].

Take `C[C@@H]1Cc2ccccc2CN1C(=O)c1cc2c(cc1-c1cc(C(=O)N(C)c3ccc(O)cc3)c3n1CCCC3)CCN(C(=O)C1(c3ccccc3)CC1)C2` [Example 109, N-(4-Hydroxyphenyl)-N-methyl-3-{7-[(3R)-3-methyl-1,2,3,4-tetrahydroisoquinoline-2-carbonyl]-2-(1-phenylcyclopropanecarbonyl)-1,2,3,4-tetrahydroisoquinolin-6-yl}-5,6,7,8-tetrahydroindolizine-1-carboxamide]: the values for the IC50 in assay [1] and in assay [2] were 8.6 nM and 89 nM, respectively.

On to `CCNC(=O)N1Cc2cc(C(=O)N3Cc4ccccc4C[C@H]3C)c(-c3cc(C(=O)N(C)c4ccc(O)cc4)c(C)n3C)cc2C1` [Example 110, N-Ethyl-5-{4-[(4-hydroxyphenyl)(methyl)carbamoyl]-1,5-dimethyl-1H-pyrrol-2-yl}-6-[(3R)-3-methyl-1,2,3,4-tetrahydroisoquinoline-2-carbonyl]-2,3-dihydro-1H-isoindole-2-carboxamide], for which the values for the IC50 in assay [1] and in assay [2] were 19 nM and 329 nM, respectively.

For the compound `Cc1c(C(=O)N(C)c2ccc(O)cc2)cc(-c2cc3c(cc2C(=O)N2Cc4ccccc4C[C@H]2C)CN(C(=O)NCc2ccccc2)C3)n1C` [Example 111, N-Benzyl-5-{4-[(4-hydroxyphenyl)(methyl)carbamoyl]-1,5-dimethyl-1H-pyrrol-2-yl}-6-[(3R)-3-methyl-1,2,3,4-tetrahydroisoquinoline-2-carbonyl]-2,3-dihydro-1H-isoindole-2-carboxamide], the IC50 in assay [1] turned out to be 8.4 nM; in assay [2], 64 nM.

With `CC(=O)N1Cc2cc(C(=O)N3Cc4ccccc4C[C@H]3C)c(-c3cc(C(=O)N(C)c4ccc(O)cc4)c(C)n3C)cc2C1` [Example 112, 5-{2-Acetyl-6-[(3R)-3-methyl-1,2,3,4-tetrahydroisoquinoline-2-carbonyl]-2,3-dihydro-1H-isoindol-5-yl}-N-(4-hydroxyphenyl)-N,1,2-trimethyl-1H-pyrrole-3-carboxamide], the results for the IC50 in assay [1] and in assay [2] were 42 nM and 394 nM, respectively.

For the compound `C[C@@H]1Cc2ccccc2CN1C(=O)c1cc2c(cc1-c1cc(C(=O)N(C)c3ccc(O)cc3)c3n1CCCC3)CCN(C(=O)Cc1ccc(CN3CCN(C)CC3)cc1)C2` [Example 113, N-(4-Hydroxyphenyl)-N-methyl-3-{7-[(3R)-3-methyl-1,2,3,4-tetrahydroisoquinoline-2-carbonyl]-2-(2-{4-[(4-methylpiperazin-1-yl)methyl]phenyl}acetyl)-1,2,3,4-tetrahydroisoquinolin-6-yl}-5,6,7,8-tetrahydroindolizine-1-carboxamide], the figures for the IC50 in assay [1] and in assay [2] were 3.6 nM and 25 nM, respectively.

In the case of `Cc1c(C(=O)N(C)c2ccccc2)cc(-c2cc3c(cc2C(=O)N2Cc4ccccc4C[C@H]2C)CN(C(=O)Oc2ccccc2)CC3)n1C` [Example 114, Phenyl 6-{1,5-dimethyl-4-[methyl(phenyl)carbamoyl]-1H-pyrrol-2-yl}-7-[(3R)-3-methyl-1,2,3,4-tetrahydroisoquinoline-2-carbonyl]-1,2,3,4-tetrahydroisoquinoline-2-carboxylate], the IC50 in assay [1] stood at 3.8 nM; in assay [2] it was 28 nM.

Consider `Cc1c(C(=O)N(C)c2ccccc2)cc(-c2cc3c(cc2C(=O)N2Cc4ccccc4C[C@H]2CN2CCOCC2)CN(C(=O)Oc2ccccc2)CC3)n1C` [Example 115, Phenyl 6-{1,5-dimethyl-4-[methyl(phenyl)carbamoyl]-1H-pyrrol-2-yl}-7-[(3S)-3-(morpholin-4-ylmethyl)-1,2,3,4-tetrahydroisoquinoline-2-carbonyl]-1,2,3,4-tetrahydroisoquinoline-2-carboxylate], for which the IC50 in assay [1] worked out at 3.4 nM; in assay [2], 24 nM.

Regarding `COc1ccc(CCCN2Cc3cc(C(=O)N4Cc5ccccc5C[C@H]4C)c(-c4cc(C(=O)N(C)c5ccc(O)cc5)c(C)n4C)cc3C2)cc1` [Example 116, N-(4-Hydroxyphenyl)-5-{2-[3-(4-methoxyphenyl)propyl]-6-[(3R)-3-methyl-1,2,3,4-tetrahydroisoquinoline-2-carbonyl]-2,3-dihydro-1H-isoindol-5-yl}-N,1,2-trimethyl-1H-pyrrole-3-carboxamide], the values for the IC50 in assay [1] and in assay [2] were 21 nM and 181 nM, respectively.

As to `Cc1c(C(=O)N(C)c2ccccc2)cc(-c2cc3c(cc2C(=O)N2Cc4ccccc4C[C@H]2CN2CCOCC2)CN(C(=O)Cc2ccccc2)CC3)n1C` [Example 117, N,1,2-trimethyl-5-{7-[(3S)-3-(morpholin-4-ylmethyl)-1,2,3,4-tetrahydroisoquinoline-2-carbonyl]-2-(2-phenylacetyl)-1,2,3,4-tetrahydroisoquinolin-6-yl}-N-phenyl-1H-pyrrole-3-carboxamide], the IC50 turned out to be 2.5 nM in assay [1] and 39 nM in assay [2].

As to `Cc1c(C(=O)N(C)c2ccccc2)cc(-c2cc3c(cc2C(=O)N2Cc4ccccc4C[C@H]2C)CN(C(=O)Cc2ccccc2)CC3)n1C` [Example 118, N,1,2-Trimethyl-5-{7-[(3R)-3-methyl-1,2,3,4-tetrahydroisoquinoline-2-carbonyl]-2-(2-phenylacetyl)-1,2,3,4-tetrahydroisoquinolin-6-yl}-N-phenyl-1H-pyrrole-3-carboxamide], the IC50 in assay [1] came to 3.4 nM; in assay [2], 43 nM.
